Assay results as given in patent US9708293B2, “N-(pyridin-2-yl)pyrimidin-4-amine derivatives containing a sulfone group” (BAYER PHARMA AKTIENGESELLSCHAFT, priority 2012, dated 2017).

Key:
CDK2/CycE = biological target: T1, CDK2/CycE (Homo sapiens, UniProt P24941); assay: CDK2/CycE high ATP kinase assay (Method 2b); type: biochemical; details: 2 mM ATP, read-out: high ATP CDK2: CDK2/CycE1 kinase assay IC50
T1 construct: GST; purchased ProQinase GmbH (Freiburg, Germany); host or cells: insect cells (Sf9)
Protocol: 2b. CDK2/CycE High ATP Kinase Assay
CDK2/CycE-inhibitory activity of compounds of the present invention at 2 mM adenosine-tri-phosphate (ATP) was quantified employing the CDK2/CycE TR-FRET (TR-FRET=Time Resolved Fluorescence Energy Transfer) assay as described in the following paragraphs.
Recombinant fusion proteins of GST and human CDK2 and of GST and human CycE, expressed in insect cells (Sf9) and purified by Glutathion-Sepharose affinity chromatography, were purchase from ProQinase GmbH (Freiburg, Germany). As substrate for the kinase reaction biotinylated peptide biotin-Ttds-YISPLKSPYKISEG (C-terminus in amid form) was used which can be purchased e.g. form the company JERINI peptide technologies (Berlin, Germany).
For the assay 50 nl of a 100 fold concentrated solution of the test compound in DMSO was pipetted into a black low volume 384 well microtiter plate (Greiner Bio-One, Frickenhausen, Germany), 2 μl of a solution of CDK2/CycE in aqueous assay buffer [50 mM Tris/HCl pH 8.0, 10 mM MgCl2, 1.0 mM dithiothreitol, 0.1 mM sodium ortho-vanadate, 0.01% (v/v) Nonidet-P40 (Sigma)] were added and the mixture was incubated for 15 min at 22° C. to allow pre-binding of the test compounds to the enzyme before the start of the kinase reaction. Then the kinase reaction was started by the addition of 3 μl of a solution ATP (3.33 mM=>final conc. in the 5 μl assay volume is 2 mM) and substrate (1.25 μM=>final conc. in the 5 μl assay volume is 0.75 μM) in assay buffer and the resulting mixture was incubated for a reaction time of […] at 22° C. The concentration of CDK2/CycE was adjusted depending of the activity of the enzyme lot and was chosen appropriate to have the assay in the linear range, typical concentrations were in the range of 15 ng/ml. […]
The resulting mixture was incubated 1 h at 22° C. to allow the formation of complex between the phosphorylated biotinylated peptide and the detection reagents. Subsequently the amount of phosphorylated substrate was evaluated by measurement of the resonance energy transfer from the Eu-chelate to the streptavidine-XL. Therefore, the fluorescence emissions at 620 nm and 665 nm after excitation at 350 nm wer measured in a TR-FRET reader, e.g. a Rubystar (BMG Labtechnologies, Offenburg, Germany) or a Viewlux (Perkin-Elmer). […]

HeLa-MaTu-ADR cells = assay: Proliferation assay, HeLa-MaTu-ADR; type: cell-based; details: Homo sapiens, 96 h; 4 days, crystal violet; read-out: Inhibition of HeLa-MaTu-ADR cell proliferation IC50
Protocol: (§1) Cultivated tumour cells (HeLa, human cervical tumour cells, ATCC CCL-2; NCI-H460, human non-small cell lung carcinoma cells, ATCC HTB-177; A2780, human ovarian carcinoma cells, ECACC #93112519; DU 145, hormone-independent human prostate carcinoma cells, ATCC HTB-81; HeLa-MaTu-ADR, multidrug-resistant human cervical carcinoma cells, EPO-GmbH Berlin; Caco-2, human colorectal carcinoma cells, ATCC HTB-37; B16F10, mouse melanoma cells, ATCC CRL-6475) were plated at a density of 5,000 cells/well (DU145, HeLa-MaTu-ADR), 3,000 cells/well (NCI-H460, HeLa), 2,500 cells/well (A2780), 1,500 cells/well (Caco-2), or 1,000 cells/well (B16F10) in a 96-well multititer plate in 200 μL of their respective growth medium supplemented 10% fetal calf serum. After 24 hours, the cells of one plate (zero-point plate) were stained with crystal violet (see below), while the medium of the other plates was replaced by fresh culture medium (200 μl), to which the test substances were added in various concentrations (0 μM, as well as in the range of 0.001-10 μM; the final concentration of the solvent dimethyl sulfoxide was 0.5%). The cells were incubated for 4 days in the presence of test substances. Cell proliferation was determined by staining the cells with crystal violet: the cells were fixed by adding 20 μl/measuring point of an 11% glutaric aldehyde solution for 15 minutes at room temperature. After three washing cycles of the fixed cells with water, the plates were dried at room temperature. The cells were stained by adding 100 μl/measuring point of a 0.1% crystal violet solution (pH 3.0). After three washing cycles of the stained cells with water, the plates were dried at room temperature. The dye was dissolved by adding 100 μl/measuring point of a 10% acetic acid solution. The extinction was determined by photometry at a wavelength of 595 nm. The change of cell number, in percent, was calculated by normalization of the measured values to the extinction values of the zero-point plate (=0%) and the extinction of the untreated (0 μm) cells (=100%). […]

NCI-H460 cells = assay: Proliferation assay, NCI-H460; type: cell-based; details: Homo sapiens, NCI-H460, 96 h; 4 days, crystal violet; read-out: Inhibition of NCI-H460 cell proliferation IC50
Protocol: as §1

B16F10 cells = assay: Proliferation assay, B16F10; type: cell-based; details: Mus musculus, B16-F10, 96 h; 4 days, crystal violet; read-out: Inhibition of B16F10 cell proliferation IC50
Protocol: as §1

Compound	IC50 (CDK2/CycE)	IC50 (HeLa-MaTu-ADR cells)	IC50 (NCI-H460 cells)	IC50 (B16F10 cells)
COc1cc(F)ccc1-c1cc(Nc2cc(CS(C)(=O)=O)ccn2)ncn1 [Example 1, 6-(4-Fluoro-2-methoxyphenyl)-N-{4-[(methylsulfonyl)methyl]pyridin-2-yl}pyrimidin-4-amine]	≥ 20000 nM	212 nM	317 nM	289 nM
COc1cc(F)ccc1-c1cc(Nc2cc(CS(C)(=O)=O)cc(F)n2)ncn1 [Example 4, 6-(4-Fluoro-2-methoxyphenyl)-N-{6-fluoro-4-[(methylsulfonyl)methyl]pyridin-2-yl}pyrimidin-4-amine]	1870 nM	–	–	–
COc1cc(F)ccc1-c1cc(Nc2cc(CS(C)(=O)=O)cc(C(F)(F)F)n2)ncn1 [Example 3, 6-(4-Fluoro-2-methoxyphenyl)-N-{4-[(methylsulfonyl)methyl]-6-(trifluoromethyl)pyridin-2-yl}pyrimidin-4-amine]	371 nM	33 nM	55 nM	34 nM
COc1cc(F)ccc1-c1cc(Nc2cc(CS(C)(=O)=O)cc(C)n2)ncn1 [Example 2, 6-(4-Fluoro-2-methoxyphenyl)-N-{6-methyl-4-[(methylsulfonyl)methyl]pyridin-2-yl}pyrimidin-4-amine]	2250 nM	54 nM	95 nM	101 nM
